These molecules were tested on GDF8 signaling (p-SMAD-3 (Ser423/425)) (assay: AlphaScreen SureFire SMAD3 (p-Ser423/425) assay, GDF8-stimulated cells (GDF pSMAD)). Details: Mus musculus, MPC-11, GDF8-stimulated pSMAD3, MPC11; tested as the salt form given; read-out: GDF pSMAD (MPC11) (μM), inhibition of GDF8 signaling.
Format: cell-based

IC50 [µM]	SMILES
1.06	Cc1cc(C)c(-c2ncccc2-c2ccc3ncnc(N)c3c2)cc1F [compound 988, 6-(2-(5-fluoro-2,4-dimethylphenyl)pyridin-3-yl)quinazolin-4-amine]
0.368	Fc1cc(-c2ncccc2-c2ccn3nccc3n2)c(F)c(F)c1F [compound 1053]

Same assay, conditions: Mus musculus, MPC-11, MPC11; GDF8-stimulated; p-SMAD3 AlphaScreen; read-out: GDF pSMAD (MPC11) (inhibition of GDF8 signaling)

SMILES	IC50 [µM]
O=c1cnc2ccc(-c3cccnc3-c3ccc(F)c(Cl)c3)cc2[nH]1 [compound 890, 7-(2-(3-Chloro-4-fluorophenyl)pyridin-3-yl)quinoxalin-2(1H)-one]	1.3
Cc1cccc(-c2ncccc2-c2ccn3nccc3n2)c1 [compound 911, 5-(2-(m-Tolyl)pyridin-3-yl)pyrazolo[1,5-a]pyrimidine]	0.0939
Fc1c(Cl)cccc1-c1ncccc1-c1ccc2ncnn2c1 [compound 772, 6-(2-(3-Chloro-2-fluorophenyl)pyridin-3-yl)-[1,2,4]triazolo[1,5-a]pyridine]	4.95
Cc1cc(-c2ncccc2-c2ccn3cncc3c2)ccc1F [compound 594, 7-(2-(4-Fluoro-3-methylphenyl)pyridin-3-yl)imidazo[1,5-a]pyridine]	0.57
Fc1ccc(-c2ncccc2-c2ccc3cn[nH]c3c2)cc1F [Compound 98, 6-(2-(3,4-Difluorophenyl)pyridin-3-yl)-1H-indazole]	10.3
Cc1cc(-c2ncccc2-c2ccn3ncc(C(=O)NC4CCN(C(C)C)CC4)c3c2)ccc1F [compound 701, 5-(2-(4-Fluoro-3-methylphenyl)pyridin-3-yl)-N-(1-isopropylpiperidin-4-yl)pyrazolo[1,5-a]pyridine-3-carboxamide]	0.167
Cc1cc(-c2ncccc2-c2ccc3ncc(C(=O)OC[C@H](Cc4c[nH]c5ccccc45)NC(=O)OC(C)(C)C)n3c2)ccc1F [compound 614, (S)-2-((tert-Butoxycarbonyl)amino)-3-(1H-indol-3-yl)propyl 6-(2-(4-fluoro-3-methylphenyl)pyridin-3-yl)imidazo[1,2-a]pyridine-3-carboxylate]	5.56
Cc1cc(-c2ncccc2-c2ccc3ncn(CCCO)c3c2)ccc1F [Compound 41, 3-(6-(2-(4-Fluoro-3-methylphenyl)pyridin-3-yl)-1H-benzo[d]imidazol-1-yl)propan-1-ol]	3.14
Fc1ccc(-c2ncccc2-c2ccn3ncnc3c2)cc1Cl [compound 733, 7-(2-(3-Chloro-4-fluorophenyl)pyridin-3-yl)-[1,2,4]triazolo[1,5-a]pyridine]	1.27
Cc1ccc(Oc2ncnc3ccc(-c4cccnc4-c4ccc(F)c(Cl)c4)cc23)cn1 [compound 437, 6-(2-(3-Chloro-4-fluorophenyl)pyridin-3-yl)-4-((6-methylpyridin-3-yl)oxy)quinazoline]	0.739
Clc1cccc(-c2ncccc2-c2ccc3nccnc3n2)c1 [compound 739, 6-(2-(3-Chlorophenyl)pyridin-3-yl)pyrido[2,3-b]pyrazine]	2.32
Cc1cc(-c2ncccc2-c2ccc3ncnc(Nc4ccc(C#N)cc4)c3c2)ccc1F [compound 409, 4-((6-(2-(4-Fluoro-3-methylphenyl)pyridin-3-yl)quinazolin-4-yl)amino)benzonitrile]	7.95
Cc1cc(-c2ncccc2-c2cnc3[nH]ncc3c2)ccc1F [Compound 78, 5-(2-(4-Fluoro-3-methylphenyl)pyridin-3-yl)-1H-pyrazolo[3,4-b]pyridine]	0.316
N#Cc1cnc2ccc(-c3cccnc3-c3ccc(F)c(C4CC4)c3)cn12 [compound 223, 6-(2-(3-Cyclopropyl-4-fluorophenyl)pyridin-3-yl)imidazo[1,2-a]pyridine-3-carbonitrile]	0.707
Fc1ccc(-c2ncccc2-c2ccn3nccc3n2)cc1C1CC1 [compound 896, 5-(2-(3-Cyclopropyl-4-fluorophenyl)pyridin-3-yl)pyrazolo[1,5-a]pyrimidine]	0.0936

Other lines, results leading:

IC50 [µM]	SMILES
17.4	COc1ccnc2ccc(-c3cccnc3-c3cc(Cl)c(F)cc3F)cc12 [compound 842, 6-(2-(5-Chloro-2,4-difluorophenyl)pyridin-3-yl)-4-methoxyquinoline]
16.7	Cc1cc(-c2ncccc2-c2ccc3nc(N)ncc3c2)ccc1F [compound 383, 6-(2-(4-Fluoro-3-methylphenyl)pyridin-3-yl)quinazolin-2-amine]
12.4	Cc1cc(-c2ncccc2-c2ccc3ncn(CCCN4CCN(C)CC4)c3c2)ccc1F [compound 253, 1-(3-(4-Methylpiperazin-1-yl)propyl)-6-(2-(4-fluoro-3-methylphenyl)pyridin-3-yl)-1H-benzo[d]imidazole]
8.48	Cc1c(Cl)cccc1-c1ncccc1-c1ccc2ncnn2c1 [compound 773, 6-(2-(3-Chloro-2-methylphenyl)pyridin-3-yl)-[1,2,4]triazolo[1,5-a]pyridine]
6.03	Fc1cccc(-c2ncccc2-c2ccc3cn[nH]c3c2)c1 [Compound 100, 6-(2-(3-Fluorophenyl)pyridin-3-yl)-1H-indazole]
4.83	Fc1ccc(-c2ncccc2-c2ccc3[nH]ncc3c2)cc1C(F)(F)F [Compound 93, 5-(2-(4-Fluoro-3-(trifluoromethyl)phenyl)pyridin-3-yl)-1H-indazole]
0.959	CCN(CC)CCOc1ncnc2ccc(-c3cccnc3-c3ccc(F)c(Cl)c3)cc12 [compound 438, 2-((6-(2-(3-Chloro-4-fluorophenyl)pyridin-3-yl)quinazolin-4-yl)oxy)-N,N-diethylethan-1-amine]
0.841	Fc1ccc(-c2ncccc2-c2ccc3ncnn3c2)cc1C1CC1 [compound 217, 6-(2-(3-Cyclopropyl-4-fluorophenyl)pyridin-3-yl)-[1,2,4]triazolo[1,5-a]pyridine]
0.363	Cc1cc(-c2ncccc2-c2ccc3nc[nH]c3c2)ccc1F [Compound 177, 6-(2-(4-Fluoro-3-methylphenyl)pyridin-3-yl)-1H-benzo[d]imidazole]
0.297	Cc1ccc(Cl)cc1-c1ncccc1-c1ccc2ncnc(N)c2c1 [compound 463, 6-(2-(5-Chloro-2-methylphenyl)pyridin-3-yl)quinazolin-4-amine]
0.265	Cc1cc(-c2ncc(NCc3ccncc3)cc2-c2ccc3ncsc3c2)ccc1F [compound 509, 5-(Benzo[d]thiazol-6-yl)-6-(4-fluoro-3-methylphenyl)-N-(pyridin-4-ylmethyl)pyridin-3-amine]
0.217	Fc1ccc(Cl)cc1-c1ncccc1-c1ccc2ncsc2c1 [compound 717, 6-(2-(5-Chloro-2-fluorophenyl)pyridin-3-yl)benzo[d]thiazole]
0.161	Cc1ccc(F)c(-c2ncccc2-c2ccc3ncc(C#N)n3c2)c1 [compound 624, 6-(2-(2-Fluoro-5-methylphenyl)pyridin-3-yl)imidazo[1,2-a]pyridine-3-carbonitrile]
0.126	Fc1ccc(-c2ncccc2-c2ccn3nccc3n2)cc1Cl [compound 914, 5-(2-(3-Chloro-4-fluorophenyl)pyridin-3-yl)pyrazolo[1,5-a]pyrimidine]
0.118	Cc1cc(-c2ncccc2-c2cc(C)c3[nH]ncc3c2)ccc1F [Compound 175, 5-(2-(4-Fluoro-3-methylphenyl)pyridin-3-yl)-7-methyl-1H-indazole]
0.0324	Fc1ccc(-c2ncccc2-c2ccc3ncc(-c4ncn[nH]4)n3c2)cc1Cl [compound 844, 6-(2-(3-Chloro-4-fluorophenyl)pyridin-3-yl)-3-(1H-1,2,4-triazol-5-yl)imidazo[1,2-a]pyridine]
